In US20190000850A1, “COMBINATION CANCER THERAPY” (The Regents of the University of California, priority 2015, published 2019):

How the values were obtained:
[1] = cited from earlier work
[2] = system: Jurkat cells; assay: dGTP/DNA-G biosynthesis with [^13C6]glucose and [^15N5]dG labeling; assay type: cell-based
Method: Another approach to study dGTP/DNA-G biosynthetic pathways is through anticancer therapy Forodesine (BCX-1777). The precursor for DNA-G, dGTP, can be produced from glucose via the de novo pathway and from salvage of extracellular dG either as nucleobase and/or intact nucleoside (FIG. 42A). […] Jurkat cells were labeled for 18 h in the following conditions: untreated, PNP inhibitor (BCX-1777) and DI-82, a specific dCK inhibitor. The labeled media contained […] [U-^13C6]glucose to represent the de novo contribution and 5 μM [^15N5]dG to represent salvage pathways. At the end of the incubation time, [^15N5]dG decreased nearly three orders of magnitude in the culture media from the untreated Jurkat cells, reflecting the high PNP activity in these leukemia cells (FIG. 42B). In contrast, the culture media from BCX-1777 treated cells contained 1.8 μM [^15N5]dG, indicative of reduced dG catabolism.
(§1) Cells were transferred into RPMI-1640 without glucose and supplemented with 10% dialyzed FBS (Gibco) containing any of the following labeled substrates (Cambridge Isotopes): precursors for de novo [U-^13C6]glucose (Sigma-Aldrich) at 11 mM; precursors for purine salvage [U-^13C10,^15N5]dA (Cambridge Isotopes), [^15N5]dA (Cambridge Isotopes), [^15N5]dG (Cambridge Isotopes), [U-^13C5,^15N4]Hx (Cambridge Isotopes) at 5 μM or as indicated in the text; and precursors for pyrimidine salvage: [U-^13C9,^15N3]dC (Silantes) and [U-^13C10,^15N2]dT (Cambridge Isotopes) at 5 μM. The cells were incubated for 18 h or as indicated in the text before samples collection and processing.
(§2) Culture medium was collected 20 μL at the indicated time points. Stock solutions (10 mM) of [U-^13C10,^15N5]dA, and [^15N3]dC (Cambridge Isotope Laboratories) were prepared individually in dimethyl sulfoxide (DMSO), and stored at −20° C. before use as internal standards. The internal standards were diluted to 20 nM in methanol to generate internal standard solution. Calibration standards were prepared by spiking working stock solutions of [U-^13C10,^15N5]dA and [U-^13C9,^15N3]dC blank media to give concentrations in the 10 nM-10 μM range. Each 20 μL calibration standard sample was mixed with 60 μL of internal standard solution, mixed (30 s) and centrifuged (15,000 g, 10 min, 4° C.) and 60 μL of supernatant were transferred into a clean mass spec vial for LC-MS/MS-MRM analysis. Media samples were processed similarly and in parallel to the calibration standard samples.
Cells were collected into microcentrifuge tube and centrifuged (450×g, 4 min, 4° C.). The supernatant was carefully aspirated. The cells were washed twice by the addition of 1 mL of cold PBS and centrifugation (450×g, 4 min 4° C.). PBS washes were aspirated. […]

[3] = target: T1, Chk1 (Homo sapiens, UniProt O14757); conditions: read-out: IC50 against primary target (Chk1); cited from earlier work
T1 sequence (O14757 1-476): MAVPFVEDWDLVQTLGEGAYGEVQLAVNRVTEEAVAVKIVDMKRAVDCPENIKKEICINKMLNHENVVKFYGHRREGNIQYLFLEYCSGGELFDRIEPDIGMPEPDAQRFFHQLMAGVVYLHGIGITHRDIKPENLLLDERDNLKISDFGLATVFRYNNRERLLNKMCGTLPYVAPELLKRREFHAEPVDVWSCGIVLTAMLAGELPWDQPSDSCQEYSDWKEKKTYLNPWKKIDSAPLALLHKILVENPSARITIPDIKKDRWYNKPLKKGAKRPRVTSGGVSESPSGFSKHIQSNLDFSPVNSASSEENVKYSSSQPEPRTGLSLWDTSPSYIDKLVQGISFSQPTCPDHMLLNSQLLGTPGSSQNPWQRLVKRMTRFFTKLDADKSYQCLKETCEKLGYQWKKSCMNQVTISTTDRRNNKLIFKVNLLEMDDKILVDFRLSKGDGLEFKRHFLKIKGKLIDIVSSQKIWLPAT

[4] = system: CEM cells; assay: Mass spectrometric assay of de novo (RNR) and salvage (dCK) contribution to dCTP and DNA-C; assay type: cell-based; conditions: G1 released CEM cells
Method: To analyze the differential utilization of de novo and nucleotide biosynthetic salvage pathways, cultured cells were incubated with stable isotope labeled DNA precursors. […] Extracted dNTP and DNA were analyzed in a triple quadrupole mass spectrometer (QQQ) using multiple reaction monitoring (MRM). The first (Q1) and third (Q3) quadrupoles function as mass filters while the second (Q2) quadrupole serves as a collision chamber. […] In Q2, the glycosidic bond of the selected dC is cleaved, releasing a protonated nucleobase (NB) fragment and a neutral deoxyribose (dR) molecule. The m/z specific NB fragments from dC is separated in Q3 and detected to generate ion chromatograms. […] Each identifier corresponded to a specific biosynthetic pathway and is defined as [x;y], where “x” is the number of heavy isotope-labeled atoms in NB and “y” is the number of heavy isotope atoms in dR. […] According to current biochemical maps of nucleotide metabolism, the [7;5] identifier can only arise from salvaging [U-^13C9,^15N3]dC into newly synthesized DNA. In contrast, a dC with a [0,5] identifier is a product of the de novo pathway. The ratio of the peak areas in the ion chromatograms of salvage [7;5] and de novo [0;5] identifiers describes the relative contributions of the two biosynthetic routes to the dCTP pool used for DNA replication.
Genomic DNA was extracted using the Quick-gDNA MiniPrep kit (Zymo Research, D3021) and hydrolyzed to nucleosides using the DNA Degradase Plus kit (Zymo Research, E2021) following manufacturer-supplied instructions. In the final step of DNA extraction, 50 μL of water was used to elute the DNA. A nuclease premix solution was prepared by mixing 10× buffer, DNA degradase Plus™ and water in the ratio of 2.5/1/1.5 (v/v/v). DNA hydrolysis reaction was prepared in mass spec vials by mixing 5 μL of the nuclease premix solution (5 U of enzyme) and 20 μL of eluted genomic DNA, the total volume becomes 25 μL. The samples were tapped and flicked downward prior to overnight before incubation at 37° C.
Cells were collected into microcentrifuge tube and centrifuged (450×g, 4 min, 4° C.). The supernatant was carefully aspirated. The cells were washed twice by the addition of 1 mL of cold PBS and centrifugation (450×g, 4 min 4° C.). PBS washes were aspirated. Thereafter, cells were lysed in 40 μL of 70% methanol/water (v/v), vortexed (30 s) and incubated on ice for 10 min. Then 40 μL of chloroform (Fisher) was added, vortexed (30 s) and incubated on ice for another 10 min. The samples were then centrifuged at max speed for 10 min at 4° C. Finally, the supernatant was transferred (≈25 μL) into a mass spec vial.
For genomic DNA and media analysis, an aliquot of DNA hydrolysis or media samples (20 μL) was injected directly onto a porous graphitic carbon column (Thermo Fisher Scientific Hypercarb, 100×2.1 mm, 5 μm particle size) equilibrated in solvent A (water/acetonitrile/formic acid, 95/5/0.2, v/v/v) and eluted (200 μL/min) with an increasing concentration of solvent B (acetonitrile/water/formic acid, 90/10/0.2, v/v/v): min/% B/flow rate (μL/min); 0/0/200, 5/0/200, 10/15/200, 20/15/200, 21/40/200, 25/50/200, 26/100/700, 30/100/700, 3I/O/700, 34/0/700, 35/0/200).

[5] = system: Jurkat cells; assay: dATP/DNA-A biosynthesis with [^13C6]glucose and [^15N5]dA labeling; assay type: cell-based
Method: The precursor for DNA-A, dATP, can be produced from glucose via the de novo pathway and from salvage of extracellular dA either as nucleobase and/or intact nucleoside (FIG. 41A). […] Pharmacological perturbations were used to investigate the contributions of each dA salvage pathway (FIG. 41A). Jurkat cells were labeled for 18 h in the following conditions: untreated, ADA inhibitor Pentostatin (dCF) and DI-82, a specific dCK inhibitor. The labeled media contained […] [U-^13C6]glucose to represent the de novo contribution and 5 μM [^15N5]dA to represent salvage pathways. At the end of the incubation time, [^15N5]dA was undetectable in the culture media from the untreated Jurkat cells, reflecting the high ADA activity in these leukemia cells (FIG. 41B). In contrast, the culture media from dCF treated cells contained 1.5 μM [^15N5]dA, indicative of reduced dA catabolism.
as §1, §2
Cells were collected into microcentrifuge tube and centrifuged (450×g, 4 min, 4° C.). The supernatant was carefully aspirated. The cells were washed twice by the addition of 1 mL of cold PBS and centrifugation (450×g, 4 min 4° C.). PBS washes were aspirated. Thereafter, cells were lysed in 40 μL of 70% methanol/water (v/v), vortexed (30 s) and incubated on ice for 10 min. […]

[6] = Solubility study in phosphate buffer solution; assay type: physicochemical; conditions: aqueous buffer
[7] = system: CCRF-CEM T-ALL cells; assay: EdU pulse assay of cell cycle progression after release from G1 arrest; assay type: cell-based; conditions: synchronized CEM cells released from G1
Method: Following release from G1, cells progress to early, mid and late S phase (defined as S1, S2 and S3, respectively) and G2/M. By 18 h following release in drug-free media, 42.5% of cells progressed to S3. […] Thus, dCK represents a resistance mechanism to ATR inhibition.
Cells were treated with a CDK4/6 inhibitor, PD-0332991 (Selleckchem) for 18 h to arrest in G1 phase. Subsequently, cells were washed and released into fresh media containing 10% FBS to monitor the progression of synchronized cells throughout the cell cycle by flow cytometry analysis.
For measuring cell cycle progression of synchronous population of cells, cells were first arrested in G1 phase, then washed and released in treated media. Before collecting and fixing cells at various time points, cells were pulse-labeled with 10 μM EdU for 1 h, and then click-labeled with azide-Alexa Fluor 647 (Invitrogen; Click-iT EdU Flow cytometry kit) according to manufacturer's protocol. Total DNA content was assessed by staining with FxCycle-Violet (Invitrogen) at 1 μg/mL final concentration in PBS containing 2% FBS.

[8] = system: p185^BCR-ABLArf^−/− pre-B cells; assay: dCTP pool and DNA-C measurement with [U-^13C9,^15N3]dC and [U-^13C6]glucose; assay type: cell-based, mouse; conditions: 3, 6, 9 and 12 h treatment
Source text: Therefore, p185^BCR-ABLArf^−/− pre-B cells were labeled with [U-^13C9,^15N3]dC and [U-^13C6]glucose to measure the contribution of salvage pathway via dCK and de novo pathway via RNR, respectively.

[9] = system: leukemia cell growth; assay: IC50 (cytotoxicity assay) of RNR inhibitors, Table 1; assay type: cell-based
Method: Cells were plated in a 384-well plate (1,000 cells/well for suspension cell lines and 500 cells/well for adherent cell lines in 30 μL). For suspension cell lines, the plate was incubated in 37° C. for 1 h to let the cells settle. For adherent cell lines, the plate was incubated overnight to allow the cells to seed. During incubation, drugs were diluted to desired concentration by serial dilution, vehicle condition was created by adding equivalent amount of DMSO. After incubation, 10 μL of diluted drugs were added to each well, and incubated for 72 h. After incubation, Cell TiterGlo reagent was added to each well according to manufacturer's instructions (Promega, CellTiter-Glo® Luminescent Cell Viability Assay). The plates were shaken for 2 min and incubated in dark for 8 min. Luminescence readings were obtained with luminometer (Molecular devices, SpectraMax).

[10] = target: ATR (Homo sapiens, UniProt Q13535); conditions: read-out: IC50 against primary target (ATR); cited from earlier work
[11] = target: ATM (Homo sapiens, UniProt Q13315); conditions: cited from earlier work
[12] = system: Jurkat cells; assay: Cell cycle histograms (DNA content), 24 h treatment; assay type: cell-based; conditions: dCF with 5 μM dA
Method: Cells were plated at the density of 0.5 million cells per ml per well in respective media/treatment. After 24 h incubation, cells were harvested and washed with PBS twice before staining with 0.5 ml of propidium iodide (Calbiochem, 1 μg/ml) solution containing Ribonuclease A and 0.3% Triton-X 100. The samples were protected from light before acquisition by flow cytometry.

ATR, sequence (Q13535 whole entry): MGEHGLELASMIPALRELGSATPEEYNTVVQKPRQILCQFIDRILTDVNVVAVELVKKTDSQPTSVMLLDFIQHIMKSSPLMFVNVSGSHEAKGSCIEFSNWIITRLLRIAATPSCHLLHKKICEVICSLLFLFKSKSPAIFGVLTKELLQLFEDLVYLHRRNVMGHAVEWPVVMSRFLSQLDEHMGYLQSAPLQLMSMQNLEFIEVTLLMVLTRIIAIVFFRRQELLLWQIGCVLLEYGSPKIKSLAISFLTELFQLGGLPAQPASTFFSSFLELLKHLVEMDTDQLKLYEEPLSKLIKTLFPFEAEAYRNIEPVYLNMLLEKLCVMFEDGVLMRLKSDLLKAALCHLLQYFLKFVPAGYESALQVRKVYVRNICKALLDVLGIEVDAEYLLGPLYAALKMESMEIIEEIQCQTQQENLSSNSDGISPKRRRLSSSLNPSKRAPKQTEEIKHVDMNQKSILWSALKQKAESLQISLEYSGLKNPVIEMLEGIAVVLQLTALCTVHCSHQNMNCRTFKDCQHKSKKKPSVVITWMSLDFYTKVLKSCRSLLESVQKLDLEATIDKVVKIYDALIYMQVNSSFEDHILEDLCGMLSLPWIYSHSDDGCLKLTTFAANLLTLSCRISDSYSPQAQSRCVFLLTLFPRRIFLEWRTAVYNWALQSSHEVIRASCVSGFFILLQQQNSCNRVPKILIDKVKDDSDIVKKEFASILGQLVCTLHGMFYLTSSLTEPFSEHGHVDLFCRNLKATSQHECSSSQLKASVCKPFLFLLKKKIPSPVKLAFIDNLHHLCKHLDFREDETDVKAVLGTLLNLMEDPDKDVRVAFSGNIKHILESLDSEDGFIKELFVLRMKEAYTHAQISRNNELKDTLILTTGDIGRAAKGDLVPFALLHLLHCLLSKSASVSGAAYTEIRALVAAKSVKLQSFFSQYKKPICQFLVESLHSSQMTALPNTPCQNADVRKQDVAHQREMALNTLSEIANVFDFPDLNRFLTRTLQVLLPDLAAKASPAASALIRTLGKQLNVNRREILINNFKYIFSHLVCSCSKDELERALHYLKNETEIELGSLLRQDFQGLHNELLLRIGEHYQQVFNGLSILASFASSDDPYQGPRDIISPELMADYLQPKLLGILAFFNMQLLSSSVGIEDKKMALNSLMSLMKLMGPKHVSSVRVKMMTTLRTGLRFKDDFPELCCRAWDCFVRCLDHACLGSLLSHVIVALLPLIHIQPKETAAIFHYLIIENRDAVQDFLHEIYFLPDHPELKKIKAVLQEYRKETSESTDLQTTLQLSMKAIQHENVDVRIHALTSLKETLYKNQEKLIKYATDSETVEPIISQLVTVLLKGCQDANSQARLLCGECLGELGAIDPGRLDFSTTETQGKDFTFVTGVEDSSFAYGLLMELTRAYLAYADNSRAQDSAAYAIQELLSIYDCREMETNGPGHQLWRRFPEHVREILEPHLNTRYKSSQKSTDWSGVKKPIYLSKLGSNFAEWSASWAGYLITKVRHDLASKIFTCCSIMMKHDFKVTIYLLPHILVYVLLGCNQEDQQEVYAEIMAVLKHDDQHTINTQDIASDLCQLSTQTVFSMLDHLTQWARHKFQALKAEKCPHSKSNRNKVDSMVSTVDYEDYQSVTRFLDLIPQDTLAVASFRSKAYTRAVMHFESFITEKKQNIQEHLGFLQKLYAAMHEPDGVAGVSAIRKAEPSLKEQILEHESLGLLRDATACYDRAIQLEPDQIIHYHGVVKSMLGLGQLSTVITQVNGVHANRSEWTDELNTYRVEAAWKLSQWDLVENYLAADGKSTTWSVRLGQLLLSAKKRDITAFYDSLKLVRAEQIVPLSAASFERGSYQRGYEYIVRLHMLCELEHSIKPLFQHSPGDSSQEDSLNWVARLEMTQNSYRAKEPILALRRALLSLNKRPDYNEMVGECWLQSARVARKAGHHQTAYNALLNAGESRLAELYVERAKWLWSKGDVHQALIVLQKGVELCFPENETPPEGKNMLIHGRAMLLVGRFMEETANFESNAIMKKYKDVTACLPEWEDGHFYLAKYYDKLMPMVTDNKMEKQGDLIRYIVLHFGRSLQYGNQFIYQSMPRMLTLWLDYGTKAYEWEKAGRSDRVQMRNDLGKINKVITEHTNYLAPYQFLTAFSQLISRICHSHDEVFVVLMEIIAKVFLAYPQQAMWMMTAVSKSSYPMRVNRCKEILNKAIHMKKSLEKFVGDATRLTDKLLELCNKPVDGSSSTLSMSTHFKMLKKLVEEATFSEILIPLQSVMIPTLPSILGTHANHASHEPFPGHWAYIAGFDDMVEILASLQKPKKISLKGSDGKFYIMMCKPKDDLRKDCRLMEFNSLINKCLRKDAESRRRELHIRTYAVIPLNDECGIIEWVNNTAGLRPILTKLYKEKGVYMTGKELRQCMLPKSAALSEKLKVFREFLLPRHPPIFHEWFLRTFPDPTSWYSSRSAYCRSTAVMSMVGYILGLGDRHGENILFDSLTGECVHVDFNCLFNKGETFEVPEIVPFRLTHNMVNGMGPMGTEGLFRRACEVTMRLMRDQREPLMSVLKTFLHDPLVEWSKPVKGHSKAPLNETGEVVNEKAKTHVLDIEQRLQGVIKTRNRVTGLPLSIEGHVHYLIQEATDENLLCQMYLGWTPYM
ATR, sequence (Q8WXE1 whole entry partner): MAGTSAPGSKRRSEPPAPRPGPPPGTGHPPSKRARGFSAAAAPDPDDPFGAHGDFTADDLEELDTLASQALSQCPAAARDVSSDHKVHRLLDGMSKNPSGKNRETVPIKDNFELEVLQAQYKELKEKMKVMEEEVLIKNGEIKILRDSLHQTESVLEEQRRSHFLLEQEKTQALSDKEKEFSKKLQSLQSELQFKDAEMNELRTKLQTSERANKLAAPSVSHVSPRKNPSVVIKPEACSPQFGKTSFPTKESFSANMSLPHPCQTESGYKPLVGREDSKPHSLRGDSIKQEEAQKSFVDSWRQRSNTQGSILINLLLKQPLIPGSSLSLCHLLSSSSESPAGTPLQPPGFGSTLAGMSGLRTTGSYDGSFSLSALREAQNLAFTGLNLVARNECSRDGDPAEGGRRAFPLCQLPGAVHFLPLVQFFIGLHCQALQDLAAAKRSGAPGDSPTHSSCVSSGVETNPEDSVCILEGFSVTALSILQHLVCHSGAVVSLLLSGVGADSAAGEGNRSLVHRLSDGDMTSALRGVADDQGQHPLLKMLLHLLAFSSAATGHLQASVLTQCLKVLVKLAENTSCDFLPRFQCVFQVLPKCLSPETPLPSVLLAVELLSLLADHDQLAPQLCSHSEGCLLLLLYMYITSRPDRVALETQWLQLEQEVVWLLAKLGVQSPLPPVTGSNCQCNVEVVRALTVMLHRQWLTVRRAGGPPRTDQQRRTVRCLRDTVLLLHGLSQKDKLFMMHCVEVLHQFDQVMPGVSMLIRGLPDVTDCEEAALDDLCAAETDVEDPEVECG

C[C@@H]1COCCN1c1cc(C2([S@](C)(=N)=O)CC2)nc(-c2cc[nH]c3nccc2-3)n1 [AZD6738]
oral bioavailability [1]: bioavailable)

O=c1[nH]cnc2c([C@@H]3N[C@H](CO)[C@@H](O)[C@H]3O)c[nH]c12 [BCX-1777, Forodesine]
[^15N5]dG in the culture media at the end of incubation ([2]; 18 h, 5 nM BCX-1777, 5 μM [^15N5]dG added): 1.8 µM
increase in dG salvage into dGTP ([2]; 18 h, BCX-1777): over 300 fold
increase of dGTP pools compared to untreated cells ([2]; 18 h, PNP inhibition by BCX-1777): 6 fold

COc1cc(Nc2cnc(C#N)c(O[C@H](C)CN(C)C)n2)ncc1-c1cnn(C)c1 [CCT244747]
IC50 [3]: 0.029 to 0.17 µM
oral bioavailability [1]: bioavailable)

COc1ccc(-c2nc(C(C)Sc3nc(N)cc(N)n3)c(C)s2)cc1OCCNS(C)(=O)=O (centres unmarked) [DI-82, N-(2-(5-(4-(1-((4,6-diaminopyrimidin-2-yl)thio)ethyl)-5-methylthiazol-2-yl)-2-methoxyphenoxy)ethyl)methanesulfonamide]
contribution of dCK to dCTP and DNA-C [4]: completely abrogates
effect on the increased dATP pool level caused by dCF ([5]; 1 μM DI-82 added to dCF): completely reversed
solubility [6]: < 300 µg/mL
effect on cell cycle progression [7]: does not significantly impair cell cycle progression
dCTP pool [8]: nearly depleted
effect on the increased dGTP pool level caused by BCX-1777 ([2]; 1 μM DI-82 added to BCX-1777): completely reversed

CCN1CCC(Oc2c(C#N)ncc3[nH]c4ncccc4c23)CC1 [GDC0425]
oral bioavailability [1]: orally bioavailable

N[C@@H]1CCCN(c2c(Br)cnc3[nH]cc(NC(=O)C4CC4)c23)C1 [GDC0575]
oral bioavailability [1]: orally bioavailable

N#Cc1cc2c(cn1)[nH]c1ncc(-c3ccc(CN4CCCCC4)cc3)cc12 [GNE-900]
IC50 [3]: 0.001 µM

Cc1occc(=O)c1[O-].Cc1occc(=O)c1[O-].Cc1occc(=O)c1[O-].[Ga+3] [Gallium Maltolate]
IC50 ([9]; 3-AP: cell type independent): 30 µM

NC(=O)NO [Hydroxyurea]
IC50 ([9]; 3-AP: cell type independent): 39 µM

Cn1c(=O)n(-c2ccc(C(C)(C)C#N)cc2)c2c3cc(-c4cnc5ccccc5c4)ccc3ncc21 [NVP-BEZ235]
IC50 [10]: 0.021 µM

Cc1cn([C@H]2C[C@H](O)[C@@H](CO)O2)c(=O)[nH]c1=O [Thymidine]
IC50 ([9]; cell type dependent, range printed with two units (μM to mM)): 50 to 5000 µM

CS(=O)(=O)c1ccc(-c2cnc(N)c(C(=O)Nc3ccccc3)n2)cc1 [VE-821]
IC50 [11]: 34 µM
IC50 [10]: 0.019 µM

OC[C@H]1O[C@@H](n2cnc3c2NC=NC[C@H]3O)C[C@@H]1O [dCF, Pentostatin]
[^15N5]dA in the culture media at the end of incubation ([5]; 18 h, 10 μM dCF, 5 μM [^15N5]dA added): 1.5 µM
increase of dATP pools compared to untreated cells ([5]; 18 h, ADA inhibition by dCF): 6 fold
increase in dA salvage into dATP ([5]; 18 h, dCF): over 190 fold
reduction of the proportion of cells in G2/M [12]: more than 2 fold
reduction of the proportion of cells in S-phase [12]: 3 fold
